In patent US10273218B2, “BCL-3 inhibitors” (University College Cardiff Consultants Limited, priority 2014, dated 2019):

Assays:
[1] = system: human breast cancer (MDA-MB-231); test: mouse Model 4 (tumour growth at transplantation site), MDA-MB-231; type: in vivo, mice; details: 3.5 mg/kg intraperitoneal injection daily; MDA-MB-231 subcutaneous; caliper tumour volume; listed as compound 12
Protocol: (§1) In all experiments, each compound was administered by intraperitoneally at 3.5 mg/kg.
(§2) Another model (Model 4) studied the effect of the compound's ability to inhibit the growth of tumour cells at the transplantation site. Human tumour cell lines were injected subcutaneously into recipient mice, followed 2 days later by single daily intraperitoneal injections of a compound (3.5 mg/kg in 1% DMSO) for the entire course of the experiment. Tumour burden was monitored longitudinally for up to 12 weeks in vivo by palpation and caliper measurements of tumour volume, and subsequently histology performed on tumours at the end of the experiment.
(§3) Model 4 tested the effect of compounds of the application to inhibit the growth of tumour cells at the transplantation site. Human tumour cell lines were injected subcutaneously into recipient mice, followed 2 days later by single daily intraperitoneal injections of Bcl3 inhibitor (3.5 mg/kg in 1% DMSO) for the entire course of the experiment. Tumour burden was monitored longitudinally for up to 12 weeks in vivo by palpation and caliper measurements of tumour volume, and subsequently histology performed on tumours at the end of the experiment.
FIGS. 6 and 7 show the comparative effect of compound 12 (3.5 mg/kg intraperitoneal injection) on Model 4 in human breast cancer (MDA-MB-231) and human colorectal cell lines (SW480), respectively. […]

[2] = system: human breast cancer MDA-MB-231 xenograft; test: in vivo metastasis mouse Model 1 (seeding and early colonization of circulating tumour cells); set-up: species or system mice; details: 3.5 mg/kg intraperitoneally daily; MDA-MB-231
Protocol: as §1
(§4) One model (Model 1) studied the effect of the compound's ability to inhibit the seeding and early colonization of circulating tumour cells at distal sites, most commonly in the lungs and liver. Human tumour cell lines were injected into the bloodstream of recipient mice, followed by single daily intraperitoneal injections of the compound (3.5 mg/kg in 1% DMSO) for 10 consecutive days. Tumour burden was monitored longitudinally for up to 8 weeks in vivo by live luminescence imaging, and subsequently histology performed on affected organs at the end of the experiment.
as §4, with “Model 1 tested” for “One model (Model 1) studied”, “Bcl3i compounds” for “the compound's ability”, “Bcl3 inhibitor” for “the compound”
The X axis represents the number of days after xenograft and the Y axis is the relative luminescence of the thoracic region by Xenon IVIS scanning of mice following injection of d-luciferin for 10 minutes.
MDA-MB-231 human breast cancer cells were used in each of the three xenograft models of metastatic breast cancer.

[3] = system: human colorectal cell lines (SW480); test: mouse Model 4 (tumour growth at transplantation site), SW480; type: in vivo, mice; details: 3.5 mg/kg intraperitoneal injection daily; SW480 subcutaneous; caliper tumour volume
Protocol: as §1, §2, §3
FIGS. 6 and 7 show the comparative effect of compound 12 (3.5 mg/kg intraperitoneal injection) on Model 4 in human breast cancer (MDA-MB-231) and human colorectal cell lines (SW480), respectively.

**Q.** `COc1ccc(C(=O)Nc2ccccc2C(=O)NCCN2CCOCC2)c(F)c1` [Compound 12, 2-fluoro-4-methoxy-N-(2-((2-morpholinoethyl)carbamoyl)phenyl) benzamide] was tested. Which “tumour growth at the transplantation (xenograft) site” value [1] did it give?
**A.** The value was “significant reductions in average tumour growth”.

**Q.** What about the “effect on tumour cell seeding at distal sites (FIG. 8)” value [2] of the same molecule?
**A.** The value was “most profound effect”.

**Q.** And the “average tumour growth at the transplantation site” value [3]?
**A.** Its value is “significant reductions in average tumour growth”.
